From ChEMBL document CHEMBL4052617, “Antibacterial activity of N-methylbenzofuro[3,2-b]quinoline and N-methylbenzoindolo[3,2-b]-quinoline derivatives and study of their mode of action” (2017)
Active and inactive are the calls of the source. The rule behind the calls is not given here.

How the values were obtained:
[1] = molecular target: T1, Cell division protein FtsZ (Staphylococcus aureus) (UniProt P0A031); assay: (§1) Inhibition of recombinant N-terminal His6-tagged Staphylococcus aureus ATCC 29213 FtzS GTPase activity expressed in Escherichia coli BL21 (DE3) cells assessed as reduction in GTP hydrolysis at 4 ug/ml preincubated for 10 mins followed by GTP addition measured after 30 mins by CytoPhos reagent based assay
T1 sequence (whole entry): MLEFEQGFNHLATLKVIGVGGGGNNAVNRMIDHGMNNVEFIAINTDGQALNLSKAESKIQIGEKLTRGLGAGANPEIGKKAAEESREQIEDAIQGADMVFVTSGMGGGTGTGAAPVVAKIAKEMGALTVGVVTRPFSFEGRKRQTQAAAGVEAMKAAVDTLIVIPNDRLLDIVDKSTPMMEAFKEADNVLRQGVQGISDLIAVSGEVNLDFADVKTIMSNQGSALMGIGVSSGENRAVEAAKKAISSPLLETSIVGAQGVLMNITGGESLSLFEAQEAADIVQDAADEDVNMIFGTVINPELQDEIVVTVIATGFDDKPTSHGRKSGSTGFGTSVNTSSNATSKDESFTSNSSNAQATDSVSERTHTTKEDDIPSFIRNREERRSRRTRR

Bacillus subtilis = assay: Antibacterial activity against Bacillus subtilis 168 after 18 hrs by Mueller-Hinton broth microdilution method; type: functional; settings: subsp. subtilis str. 168, 18 h
[2] = molecular target: T1, Cell division protein FtsZ (Staphylococcus aureus); assay: Inhibition of recombinant N-terminal His6-tagged Staphylococcus aureus ATCC 29213 FtzS GTPase activity expressed in Escherichia coli BL21 (DE3) cells assessed as reduction in GTP hydrolysis preincubated for 10 mins followed by GTP addition measured after 30 mins by CytoPhos reagent based assay
Pseudomonas aeruginosa = assay: Antibacterial activity against multidrug-resistant Pseudomonas aeruginosa ATCC BAA2108 after 18 hrs by Mueller-Hinton broth microdilution method; type: functional; settings: ATCC BAA2108, 18 h
[3] = molecular target: T1, Cell division protein FtsZ (Staphylococcus aureus); assay: Inhibition of recombinant N-terminal His6-tagged Staphylococcus aureus ATCC 29213 FtzS polymerization expressed in Escherichia coli BL21 (DE3) cells at 16 ug/ml in presence of GTP by fluorescence spectrometry method
Enterococcus faecium [4] = assay: Antibacterial activity against vancomycin-resistant Enterococcus faecium ATCC 700221 after 18 hrs by brain heart infusion broth microdilution method; type: functional; settings: ATCC 700221, 18 h
Escherichia coli [5] = assay: Bactericidal activity against Escherichia coli ATCC 25922 assessed as reduction in colony forming units at 1 to 2 times MIC concentration after 24 hrs by time kill assay; type: functional
Escherichia coli [6] = assay: Antibacterial activity against Escherichia coli ATCC […] expressing NDM-1 beta-lactamase after 18 hrs by Mueller-Hinton broth microdilution method; type: functional
[7] = molecular target: T2, Cell division protein FtsZ (Bacillus subtilis (strain 168)) (UniProt P17865); assay: Inhibition of Bacillus subtilis 168 GTPase activity of FtsZ assessed as increase in cell length at 2 ug/ml after 4 hrs by phase-contrast optical microscopic analysis; settings: Bacillus subtilis subsp. subtilis str. 168
T2 sequence (whole entry): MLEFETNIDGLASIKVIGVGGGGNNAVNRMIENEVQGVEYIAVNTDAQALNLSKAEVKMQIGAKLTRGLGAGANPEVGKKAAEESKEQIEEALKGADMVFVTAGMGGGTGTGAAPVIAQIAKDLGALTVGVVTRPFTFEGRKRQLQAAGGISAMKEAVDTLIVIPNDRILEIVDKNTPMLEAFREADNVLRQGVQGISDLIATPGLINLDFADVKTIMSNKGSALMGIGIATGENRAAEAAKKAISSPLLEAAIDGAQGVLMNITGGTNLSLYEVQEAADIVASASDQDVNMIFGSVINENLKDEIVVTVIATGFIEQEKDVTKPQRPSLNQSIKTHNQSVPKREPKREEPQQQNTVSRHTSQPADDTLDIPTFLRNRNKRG

Staphylococcus aureus [8] = assay: Antibacterial activity against Staphylococcus aureus ATCC 29213 after 18 hrs by cation adjusted Mueller-Hinton broth microdilution method; type: functional; settings: ATCC 29213, 18 h
[9] = molecular target: T1, Cell division protein FtsZ (Staphylococcus aureus); assay: as §1, with “16” for “4”
[10] = molecular target: T1, Cell division protein FtsZ (Staphylococcus aureus); assay: (§2) Inhibition of recombinant N-terminal His6-tagged Staphylococcus aureus FtzS expressed in Escherichia coli BL21 (DE3) cells assessed as reduction in protein polymer thickness at 8 ug/ml preincubated for 10 mins followed by GTP addition after 15 mins by phosphotungstic acid staining based transmission electron microscopic method
Staphylococcus aureus [11] = assay: Antibacterial activity against methicillin-resistant Staphylococcus aureus ATCC BAA41 after 18 hrs by cation adjusted Mueller-Hinton broth microdilution method; type: functional; settings: ATCC BAA41, 18 h
Staphylococcus aureus [12] = assay: Bactericidal activity against methicillin-resistant Staphylococcus aureus ATCC BAA41 assessed as reduction in colony forming units at 1 time MIC concentration after 24 hrs by time kill assay; type: functional
[13] = molecular target: T1, Cell division protein FtsZ (Staphylococcus aureus); assay: Inhibition of recombinant N-terminal His6-tagged Staphylococcus aureus ATCC 29213 FtzS GTPase activity expressed in Escherichia coli BL21 (DE3) cells assessed as reduction in GTP hydrolysis at 8 ug/ml preincubated for 10 mins followed by GTP addition after 30 mins by CytoPhos reagent based assay
Staphylococcus aureus [14] = assay: Bactericidal activity against methicillin-resistant Staphylococcus aureus ATCC BAA41 assessed as reduction in colony forming units at MIC concentration after 6 hrs by time kill assay; type: functional
Enterococcus faecium [15] = assay: Antibacterial activity against antibiotic-susceptile Enterococcus faecium ATCC 49624 after 18 hrs by brain heart infusion broth microdilution method; type: functional; settings: ATCC 49624, 18 h
Klebsiella pneumoniae = assay: Antibacterial activity against Klebsiella pneumoniae ATCC BAA2470 expressing NDM-1 beta-lactamase after 18 hrs by Mueller-Hinton broth microdilution method; type: functional; settings: ATCC BAA2470, 18 h
[16] = molecular target: T1, Cell division protein FtsZ (Staphylococcus aureus); assay: as §2, with “protofilament bundling” for “polymer thickness”
Escherichia coli [17] = assay: Bactericidal activity against Escherichia coli ATCC 25922 assessed as reduction in colony forming units at 4 times MIC concentration after 4 hrs by time kill assay; type: functional
[18] = molecular target: T1, Cell division protein FtsZ (Staphylococcus aureus); assay: Inhibition of recombinant N-terminal His6-tagged Staphylococcus aureus ATCC 29213 FtzS polymerization expressed in Escherichia coli BL21 (DE3) cells in presence of GTP by fluorescence spectrometry method
Escherichia coli [19] = assay: Antibacterial activity against Escherichia coli ATCC 25922 after 18 hrs by Mueller-Hinton broth microdilution method; type: functional; settings: ATCC 25922, 18 h
Staphylococcus aureus [20] = assay: Bactericidal activity against methicillin-resistant Staphylococcus aureus ATCC BAA41 assessed as reduction in colony forming units at 2 times MIC concentration after 6 hrs by time kill assay; type: functional

For `COc1ccc(Nc2c3ccccc3[n+](C)c3c2[nH]c2ccccc23)cc1.[I-]`, the inhibition [1] was 20%, the MIC (Bacillus subtilis) was 2 µg/mL and the inhibition [2] was “Dose-dependent effect”. The MIC (Pseudomonas aeruginosa) was 48 µg/mL, the inhibition [3] was “Active” and the MIC (Enterococcus faecium [4]) was 4 µg/mL. For the same molecule, the inhibition (Escherichia coli [5]) was “Active”, the MIC (Escherichia coli [6]) was 6 µg/mL and the Activity [7] was “Active”. For the same molecule, the MIC (Staphylococcus aureus [8]) was 2 µg/mL, the inhibition [9] was 60% and the inhibition [10] was “Active”. The MIC (Staphylococcus aureus [11]) was 2 µg/mL, the Activity (Staphylococcus aureus [12]) was 1 ×10³ CFU/ml and the inhibition [13] was 50%. The Activity (Staphylococcus aureus [14]) was 1 ×10² CFU/ml, the MIC (Enterococcus faecium [15]) was 4 µg/mL and the MIC (Klebsiella pneumoniae) was 48 µg/mL. The inhibition [16] was “Active”, the inhibition (Escherichia coli [17]) was “Active” and the inhibition [18] was “Dose-dependent effect”. For the same molecule, the MIC (Escherichia coli [19]) was 6 µg/mL and the Activity (Staphylococcus aureus [20]) was 1 ×10³ CFU/ml.
